Tests used:
[1] = target: Recombinant human JAK1 catalytic domain (Homo sapiens (Human), UniProt P23458); assay: JAK1 inhibition assay; type: biochemical; conditions: semi-quantitative score
Outline: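 Radiometric assay read by scintillation counting after phosphoric-acid washes. Percent inhibition calculated from cpm relative to vehicle and 10 μM staurosporine control. IC50 derived from compound dose-dilution series.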

MMP13 in SW1353 cells = assay: OSM/IL-1β signaling assay (MMP13 levels in SW1353 cells); type: cell-based; conditions: Homo sapiens; SW1353 cells, OSM and IL-1β triggered, MMP13 levels 48 hours after triggering; read-out: MMP13 EC50;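 note: secreted MMP13 captured by antibody, activated with APMA and its activity read by fluorescence, inhibition scaled between vehicle-treated triggered wells (0%) and untriggered wells (100%)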
[2] = Microsomal stability, human liver microsomes; type: in vitro ADME; conditions: percentage of compound remaining after 60 minutes, 3 μM compound
Procedure: (§1) 40 μL of deionised water was added to a well of a polypropylene Matrix 2D barcode labelled storage tube (Thermo Scientific) and pre-incubated at 37° C.
(§2) A co-factor containing MgCl2, glucose-6-phosphate and NADP+ was prepared in deionised water and placed on ice before use.
(§3) A final working solution containing liver microsomes (Xenotech of a species of interest (human, mouse, rat, dog), previously described G6PDH and co-factors was prepared and this mix was incubated for no longer than 20 minutes at room temperature.
(§4) 30 μL of the pre-heated compound dilution was added to 40 μL of pre-heated water in the Matrix tubes and 30 μL of the microsomal mix was added.
(§5) To measure percentage remaining of compound at time zero MeOH or ACN was added (1:1) to the well before adding the microsomal mix.
(§6) The samples which were not stopped are incubated at 37° C., 300 rpm and after 1 hour of incubation the reaction was stopped with MeOH or ACN (1:1).
(§7) After stopping the reaction the samples were mixed and placed on ice for 30 min to precipitate the proteins.
(§8) The samples were analyzed on LCMS with a flow rate of 1 mL/min. Solvent A was 15 mM ammonia and solvent B was methanol or acetonitrile, depending on the stop solution used. […] The percentage remaining after 1 hour incubation was calculated from time 0 and was calculated as the percentage remaining.
(§9) The data on microsomal stability are expressed as a percentage of the total amount of compound remaining after 60 minutes.

[3] = target: Recombinant human JAK2 catalytic domain (Homo sapiens (Human), UniProt O60674); assay: JAK2 inhibition assay; type: biochemical; conditions: semi-quantitative score
Outline: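 Radiometric kinase reactions ran for 90 min at 30 °C and were stopped with phosphoric acid, then washed and counted by scintillation. Percent inhibition was set relative to vehicle and to 10 μM staurosporine background. IC50 was derived from dose-dilution series.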

[4] = test system: JAK-STAT signalling in HeLa cells; assay: JAK-STAT signalling assay (OSM-triggered pSTAT1(2)-luciferase reporter in HeLa cells); type: cell-based; conditions: Homo sapiens; HeLa cells, OSM-triggered pSTAT1(2)-luciferase reporter; read-out: STAT signalling EC50
Outline: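 HeLa cells transiently transfected with pSTAT1(2)-luciferase reporter plus LacZ internal control, incubated overnight at 37 °C, 10% CO2, then OSM-stimulated with compound. Luciferase read by Steadylite luminescence and normalised to β-galactosidase (ONPG); percent inhibition from controls, EC50 from dose-response.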

[5] = Microsomal stability, rat liver microsomes; type: in vitro ADME; conditions: percentage of compound remaining after 60 minutes, 3 μM compound
Procedure: as §1, §2, §3, §4, §5, §6, §7, §8, §9

Chain of Recombinant human JAK2 catalytic domain (O60674 808-1132): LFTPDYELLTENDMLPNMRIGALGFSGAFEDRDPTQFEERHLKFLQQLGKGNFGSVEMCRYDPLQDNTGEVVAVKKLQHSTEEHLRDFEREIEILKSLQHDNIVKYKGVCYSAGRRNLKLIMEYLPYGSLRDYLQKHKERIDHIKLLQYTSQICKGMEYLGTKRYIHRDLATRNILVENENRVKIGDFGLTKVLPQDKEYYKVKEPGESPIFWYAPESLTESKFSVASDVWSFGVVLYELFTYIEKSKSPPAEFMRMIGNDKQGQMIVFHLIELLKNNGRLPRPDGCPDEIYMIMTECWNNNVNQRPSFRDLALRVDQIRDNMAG
Chain of Recombinant human JAK1 catalytic domain (P23458 850-1154): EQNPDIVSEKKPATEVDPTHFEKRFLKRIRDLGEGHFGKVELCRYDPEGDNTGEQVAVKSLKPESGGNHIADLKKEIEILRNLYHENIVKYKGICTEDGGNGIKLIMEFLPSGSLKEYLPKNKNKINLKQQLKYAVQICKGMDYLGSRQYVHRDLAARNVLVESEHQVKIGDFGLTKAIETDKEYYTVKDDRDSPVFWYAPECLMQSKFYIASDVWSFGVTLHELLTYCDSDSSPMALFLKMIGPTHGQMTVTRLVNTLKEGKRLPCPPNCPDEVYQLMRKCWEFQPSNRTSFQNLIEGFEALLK

| Structure (SMILES) | IC50 [1] | EC50 (MMP13 in SW1353 cells) | Microsomal Stability Human (%) [2] | IC50 [3] | EC50 [4] | Microsomal Stability Rat (%) [5] |
| --- | --- | --- | --- | --- | --- | --- |
| O=C(Nc1ccc(-c2cccc3nc(NC(=O)C4CC4)nn23)cc1)c1ccccc1 [Compound 21, N-(4-(2-(cyclopropanecarboxamido)-[1,2,4]triazolo[1,5-a]pyridin-5-yl)phenyl)benzamide] | < 100 nM | > 1000 nM | *** (*** 51-75) | 101 to 500 nM | > 1000 nM | **** (**** 76-100) |
| O=C(Nc1nc2cccc(-c3ccc(CNc4ccc(Cl)cc4F)cc3)n2n1)C1CC1 [Compound 212, Cyclopropanecarboxylic acid (5-{4-[(4-chloro-2-fluoro-phenylamino)-methyl]-phenyl}-[1,2,4]triazolo[1,5-a]pyridin-2-yl)-amide] | < 100 nM | 1 to 500 nM | *** (*** 51-75) | < 100 nM | 101 to 500 nM | ** (** 26-50) |
| O=C(Nc1nc2cccc(-c3ccc(CN4CCC(F)CC4)cc3)n2n1)C1CC1 [Compound 233, Cyclopropanecarboxylic acid {5-[4-(4-fluoro-piperidin-1-ylmethyl)-phenyl]-[1,2,4]triazolo[1,5-a]pyridin-2-yl}-amid] | < 100 nM | 501 to 1000 nM | *** (*** 51-75) | < 100 nM | > 1000 nM | ** (** 26-50) |
| N#CCc1ccccc1NCc1ccc(-c2cccc3nc(NC(=O)C4CC4)nn23)cc1 [Compound 225, Cyclopropanecarboxylic acid (5-{4-[(2-cyanomethyl-phenylamino)-methyl]-phenyl}-[1,2,4]triazolo[1,5-a]pyridin-2-yl)-amide] | < 100 nM | 1 to 500 nM | * (* 0-25) | < 100 nM | 101 to 500 nM | * (* 0-25) |
| Cc1noc(C)c1CCOc1ccc(-c2cccc3nc(NC(=O)C4CC4)nn23)cc1 [Compound 201, Cyclopropanecarboxylic acid (5-{4-[2-(3,5-dimethyl-isoxazol-4-yl)-ethoxy]-phenyl}-[1,2,4]triazolo[1,5-a]pyridin-2-yl)-amide] | < 100 nM | 501 to 1000 nM | * (* 0-25) | 101 to 500 nM | 101 to 500 nM | * (* 0-25) |
| O=C(Nc1nc2cccc(-c3ccc(C(=O)N4CCN(c5cccc(Cl)c5)CC4)cc3)n2n1)C1CC1 [Compound 113] | < 100 nM | > 1000 nM | ** (** 26-50) |  | > 1000 nM | *** (*** 51-75) |
| CC1CC(C)CN(C(=O)c2ccc(-c3cccc4nc(NC(=O)C5CC5)nn34)cc2)C1 (stereo not shown) [Compound 134] | < 100 nM | > 1000 nM | *** (*** 51-75) |  | 501 to 1000 nM | ** (** 26-50) |
| O=C(Nc1nc2cccc(-c3ccc(NS(=O)(=O)CCOc4ccccc4)cc3)n2n1)C1CC1 [Compound 122, N-(5-(4-(2-phenoxyethylsulfonamido)phenyl)-[1,2,4]triazolo[1,5-a]pyridin-2-yl)cyclopropanecarboxamide] | < 100 nM | > 1000 nM | * (* 0-25) |  | > 1000 nM | * (* 0-25) |
| O=C(N[C@@H]1CCN(Cc2ccccc2)C1)c1ccc(-c2cccc3nc(NC(=O)C4CC4)nn23)cc1 [Compound 120, (R)-N-(1-benzylpyrrolidin-3-yl)-4-(2-(cyclopropanecarboxamido)-[1,2,4]triazolo[1,5-a]pyridin-5-yl)benzamide] | < 100 nM | > 1000 nM | * (* 0-25) |  | > 1000 nM | * (* 0-25) |

Further lines, results first:

| IC50 [1] | EC50 (MMP13 in SW1353 cells) | Microsomal Stability Human (%) [2] | IC50 [3] | EC50 [4] | Microsomal Stability Rat (%) [5] | Structure (SMILES) |
| --- | --- | --- | --- | --- | --- | --- |
| < 100 nM | > 1000 nM | * (* 0-25) | < 100 nM | 101 to 500 nM | * (* 0-25) | COc1c(F)ccc(NCc2ccc(-c3cccc4nc(NC(=O)C5CC5)nn34)cc2)c1F [Compound 245, Cyclopropanecarboxylic acid (5-{4-[(2,4-difluoro-3-methoxy-phenylamino)-methyl]-phenyl}-[1,2,4]triazolo[1,5-a]pyridin-2-yl)-amide] |
| < 100 nM | > 1000 nM | *** (*** 51-75) | 101 to 500 nM | 501 to 1000 nM | **** (**** 76-100) | O=C(Nc1nc2cccc(-c3ccc(CN4CCN(CC(F)(F)F)CC4)cc3)n2n1)C1CC1 [Compound 241, Cyclopropanecarboxylic acid (5-{4-[4-(2,2,2-trifluoro-ethyl)-piperazin-1-ylmethyl]-phenyl}-[1,2,4]triazolo[1,5-a]pyridin-2-yl)-amide] |
| < 100 nM | 501 to 1000 nM | * (* 0-25) | < 100 nM | 101 to 500 nM | * (* 0-25) | O=C(Nc1nc2cccc(-c3ccc(CNc4ccccc4F)cc3)n2n1)C1CC1 [Compound 226, Cyclopropanecarboxylic acid (5-{4-[(2-fluoro-phenylamino)-methyl]-phenyl}-[1,2,4]triazolo[1,5-a]pyridin-2-yl)-amide] |
| < 100 nM | > 1000 nM | **** (**** 76-100) | < 100 nM | > 1000 nM | **** (**** 76-100) | CN(C(=O)c1ccc(-c2cccc3nc(NC(=O)C4CC4)nn23)cc1)C1CCS(=O)(=O)C1 (stereo not shown) [Compound 273, 4-[2-(Cyclopropanecarbonyl-amino)-[1,2,4]triazolo[1,5-a]pyridin-5-yl]-N-(1,1-dioxo-tetrahydrothiophen-3-yl)-N-methyl-benzamide] |
| < 100 nM | > 1000 nM | *** (*** 51-75) |  | > 1000 nM | * (* 0-25) | O=C(Nc1nc2cccc(-c3ccc(C(=O)N4CCCCC4)cc3F)n2n1)C1CC1 [Compound 89, N-(5-(2-fluoro-4-(piperidine-1-carbonyl)phenyl)-[1,2,4]triazolo[1,5-a]pyridin-2-yl)cyclopropanecarboxamide] |
| < 100 nM | 501 to 1000 nM | ** (** 26-50) |  | > 1000 nM | **** (**** 76-100) | NC(=O)c1ccc(NCc2ccc(-c3cccc4nc(NC(=O)C5CC5)nn34)cc2)cc1 [Compound 227, 4-{4-[2-(Cyclopropanecarbonyl-amino)-[1,2,4]triazolo[1,5-a]pyridin-5-yl]-benzylamino}-benzamide] |
| < 100 nM | > 1000 nM | ** (** 26-50) |  | > 1000 nM | * (* 0-25) | CC1CCCCN1C(=O)c1ccc(-c2cccc3nc(NC(=O)C4CC4)nn23)cc1 (stereo not shown) [Compound 144, N-(5-(4-(2-methylpiperidine-1-carbonyl)phenyl)-[1,2,4]triazolo[1,5-a]pyridin-2-yl)cyclopropanecarboxamide] |
| < 100 nM | > 1000 nM | * (* 0-25) |  | > 1000 nM | * (* 0-25) | CN(C(=O)COc1ccc(-c2cccc3nc(NC(=O)C4CC4)nn23)cc1)c1ccccc1 [Compound 118, N-(5-(4-(2-(methyl(phenyl)amino)-2-oxoethoxy)phenyl)-[1,2,4]triazolo[1,5-a]pyridin-2-yl)cyclopropanecarboxamide] |

— patent US10206907B2, “Compounds useful for the treatment of degenerative and inflammatory diseases” (GALAPAGOS NV, priority 2008, dated 2019)
